ChEMBL document CHEMBL4507299, “Data for DCP probe PF-04554878” (2021)

How the values were obtained:
[1] = biological target: Serine/threonine-protein kinase D1 (Homo sapiens) (UniProt Q15139)
[2] = biological target: Serine/threonine-protein kinase pim-1 (Homo sapiens) (UniProt P11309)
[3] = biological target: Tyrosine-protein kinase receptor UFO (Homo sapiens) (UniProt P30530)
[4] = biological target: Mitogen-activated protein kinase 7 (Homo sapiens) (UniProt Q13164)
[5] = biological target: Ephrin type-A receptor 4 (Homo sapiens) (UniProt P54764)
[6] = biological target: Cyclin-dependent kinase-like 3 (Homo sapiens) (UniProt Q8IVW4)
[7] = biological target: Cyclin-dependent kinase 8 (Homo sapiens) (UniProt P49336)
[8] = biological target: Membrane-associated tyrosine- and threonine-specific cdc2-inhibitory kinase (Homo sapiens) (UniProt Q99640)
[9] = biological target: Angiopoietin-1 receptor (Homo sapiens) (UniProt Q02763)
[10] = biological target: Serine/threonine-protein kinase DCLK2 (Homo sapiens) (UniProt Q8N568)
[11] = system: Mast/stem cell growth factor receptor Kit (Homo sapiens), P10721 [D816H]
[12] = biological target: Insulin receptor (Homo sapiens) (UniProt P06213)
[13] = biological target: Tyrosine-protein kinase Fyn (Homo sapiens) (UniProt P06241)
[14] = biological target: Platelet-derived growth factor receptor beta (Homo sapiens) (UniProt P09619)
[15] = biological target: 5'-AMP-activated protein kinase catalytic subunit alpha-1 (Homo sapiens) (UniProt Q13131)
[16] = biological target: Protein kinase C theta type (Homo sapiens) (UniProt Q04759)
[17] = biological target: 1-phosphatidylinositol 3-phosphate 5-kinase (Homo sapiens) (UniProt Q9Y2I7)
[18] = biological target: Wee1-like protein kinase (Homo sapiens) (UniProt P30291)
[19] = biological target: Casein kinase I isoform alpha (Homo sapiens) (UniProt P48729)
[20] = biological target: Homeodomain-interacting protein kinase 1 (Homo sapiens) (UniProt Q86Z02)
[21] = biological target: Microtubule-associated serine/threonine-protein kinase 1 (Homo sapiens) (UniProt Q9Y2H9)
[22] = biological target: Muscarinic acetylcholine receptor M5 (Homo sapiens) (UniProt P08912); details: Compound concentration 10.0 uM
[23] = biological target: Serine/threonine-protein kinase Nek10 (Homo sapiens) (UniProt Q6ZWH5)
[24] = biological target: Mitogen-activated protein kinase kinase kinase 5 (Homo sapiens) (UniProt Q99683)
[25] = biological target: D(1B) dopamine receptor (Homo sapiens) (UniProt P21918); details: Compound concentration 10.0 uM
[26] = biological target: Sodium-dependent serotonin transporter (Homo sapiens) (UniProt P31645); details: Compound concentration 10.0 uM
[27] = biological target: TGF-beta receptor type-1 (Homo sapiens) (UniProt P36897)
[28] = biological target: Tyrosine-protein kinase Blk (Homo sapiens) (UniProt P51451)
[29] = biological target: Cyclin-dependent kinase 11B (Homo sapiens) (UniProt P21127)
[30] = biological target: Tyrosine-protein kinase Fer (Homo sapiens) (UniProt P16591)
[31] = biological target: Muscle, skeletal receptor tyrosine-protein kinase (Homo sapiens) (UniProt O15146)
[32] = biological target: Myosin light chain kinase 2, skeletal/cardiac muscle (Homo sapiens) (UniProt Q9H1R3)
[33] = biological target: Serine/threonine-protein kinase TBK1 (Homo sapiens) (UniProt Q9UHD2)
[34] = biological target: 5-hydroxytryptamine receptor 6 (Homo sapiens) (UniProt P50406); details: Compound concentration 10.0 uM
[35] = biological target: Serine/threonine-protein kinase N1 (Homo sapiens) (UniProt Q16512)
[36] = biological target: 5-hydroxytryptamine receptor 2C (Homo sapiens) (UniProt P28335); details: Compound concentration 10.0 uM
[37] = biological target: Serine/threonine-protein kinase pim-2 (Homo sapiens) (UniProt Q9P1W9)
[38] = biological target: Casein kinase I isoform delta (Homo sapiens) (UniProt P48730)
[39] = biological target: Tyrosine-protein kinase FRK (Homo sapiens) (UniProt P42685)
[40] = biological target: Cyclin-G-associated kinase (Homo sapiens) (UniProt O14976)
[41] = biological target: Cyclin-dependent kinase-like 1 (Homo sapiens) (UniProt Q00532)
[42] = biological target: Interleukin-1 receptor-associated kinase 3 (Homo sapiens) (UniProt Q9Y616)
[43] = biological target: Activated CDC42 kinase 1 (Homo sapiens) (UniProt Q07912)
[44] = biological target: RAF proto-oncogene serine/threonine-protein kinase (Homo sapiens) (UniProt P04049)
[45] = biological target: Cyclin-dependent kinase 3 (Homo sapiens) (UniProt Q00526)
[46] = biological target: Serine/threonine-protein kinase 10 (Homo sapiens) (UniProt O94804)
[47] = Compound concentration 100.0 nM
[48] = Compound concentration 1000.0 nM

Cyclin-G-associated kinase (Homo sapiens), sequence (O14976 whole entry): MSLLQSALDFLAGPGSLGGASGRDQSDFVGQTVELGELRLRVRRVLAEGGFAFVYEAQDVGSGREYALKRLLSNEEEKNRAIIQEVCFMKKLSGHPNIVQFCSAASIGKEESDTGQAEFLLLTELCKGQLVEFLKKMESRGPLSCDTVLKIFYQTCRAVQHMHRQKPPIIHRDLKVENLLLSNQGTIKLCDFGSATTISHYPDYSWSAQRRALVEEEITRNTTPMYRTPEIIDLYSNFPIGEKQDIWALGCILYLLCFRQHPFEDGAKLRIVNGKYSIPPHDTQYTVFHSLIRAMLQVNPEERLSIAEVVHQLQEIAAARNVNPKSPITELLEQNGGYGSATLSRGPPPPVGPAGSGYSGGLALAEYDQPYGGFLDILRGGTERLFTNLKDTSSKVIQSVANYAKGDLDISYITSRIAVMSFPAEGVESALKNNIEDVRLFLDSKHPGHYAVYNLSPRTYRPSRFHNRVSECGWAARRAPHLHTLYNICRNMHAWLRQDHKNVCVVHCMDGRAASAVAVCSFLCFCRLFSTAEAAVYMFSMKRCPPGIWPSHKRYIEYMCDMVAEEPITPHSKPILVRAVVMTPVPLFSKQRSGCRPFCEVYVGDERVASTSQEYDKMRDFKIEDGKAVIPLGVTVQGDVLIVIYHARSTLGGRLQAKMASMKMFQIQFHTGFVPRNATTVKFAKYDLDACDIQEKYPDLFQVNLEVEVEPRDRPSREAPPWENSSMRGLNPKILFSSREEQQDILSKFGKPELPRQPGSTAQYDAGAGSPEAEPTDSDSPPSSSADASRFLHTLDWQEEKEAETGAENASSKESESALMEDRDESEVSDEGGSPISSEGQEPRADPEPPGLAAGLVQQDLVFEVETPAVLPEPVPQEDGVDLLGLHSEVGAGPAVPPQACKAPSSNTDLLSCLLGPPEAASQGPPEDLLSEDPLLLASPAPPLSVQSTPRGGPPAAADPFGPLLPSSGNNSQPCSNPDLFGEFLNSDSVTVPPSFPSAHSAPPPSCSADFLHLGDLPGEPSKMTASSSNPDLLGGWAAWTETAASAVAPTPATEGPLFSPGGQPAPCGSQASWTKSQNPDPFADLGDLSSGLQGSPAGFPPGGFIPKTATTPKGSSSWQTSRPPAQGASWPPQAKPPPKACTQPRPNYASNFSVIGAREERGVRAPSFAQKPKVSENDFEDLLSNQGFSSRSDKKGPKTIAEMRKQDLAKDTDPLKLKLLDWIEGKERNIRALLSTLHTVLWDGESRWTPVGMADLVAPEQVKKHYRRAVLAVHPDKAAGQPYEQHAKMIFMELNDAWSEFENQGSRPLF
Interleukin-1 receptor-associated kinase 3 (Homo sapiens), sequence (Q9Y616 whole entry): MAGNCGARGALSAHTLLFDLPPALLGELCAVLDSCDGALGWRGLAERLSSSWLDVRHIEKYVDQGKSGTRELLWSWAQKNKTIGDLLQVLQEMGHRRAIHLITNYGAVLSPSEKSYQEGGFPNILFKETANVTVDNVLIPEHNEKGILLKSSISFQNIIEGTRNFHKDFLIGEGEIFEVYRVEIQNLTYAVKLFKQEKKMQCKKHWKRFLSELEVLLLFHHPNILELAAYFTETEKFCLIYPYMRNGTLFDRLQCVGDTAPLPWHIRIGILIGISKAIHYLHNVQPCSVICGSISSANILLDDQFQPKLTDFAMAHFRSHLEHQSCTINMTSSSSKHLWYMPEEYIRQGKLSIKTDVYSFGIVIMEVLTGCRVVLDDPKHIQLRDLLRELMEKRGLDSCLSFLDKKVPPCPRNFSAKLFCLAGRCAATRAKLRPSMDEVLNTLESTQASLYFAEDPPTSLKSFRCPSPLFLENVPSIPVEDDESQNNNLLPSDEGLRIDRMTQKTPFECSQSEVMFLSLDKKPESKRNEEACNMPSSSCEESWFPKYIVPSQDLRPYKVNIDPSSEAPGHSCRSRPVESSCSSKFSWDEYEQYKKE
Serine/threonine-protein kinase Nek10 (Homo sapiens), sequence (Q6ZWH5 whole entry): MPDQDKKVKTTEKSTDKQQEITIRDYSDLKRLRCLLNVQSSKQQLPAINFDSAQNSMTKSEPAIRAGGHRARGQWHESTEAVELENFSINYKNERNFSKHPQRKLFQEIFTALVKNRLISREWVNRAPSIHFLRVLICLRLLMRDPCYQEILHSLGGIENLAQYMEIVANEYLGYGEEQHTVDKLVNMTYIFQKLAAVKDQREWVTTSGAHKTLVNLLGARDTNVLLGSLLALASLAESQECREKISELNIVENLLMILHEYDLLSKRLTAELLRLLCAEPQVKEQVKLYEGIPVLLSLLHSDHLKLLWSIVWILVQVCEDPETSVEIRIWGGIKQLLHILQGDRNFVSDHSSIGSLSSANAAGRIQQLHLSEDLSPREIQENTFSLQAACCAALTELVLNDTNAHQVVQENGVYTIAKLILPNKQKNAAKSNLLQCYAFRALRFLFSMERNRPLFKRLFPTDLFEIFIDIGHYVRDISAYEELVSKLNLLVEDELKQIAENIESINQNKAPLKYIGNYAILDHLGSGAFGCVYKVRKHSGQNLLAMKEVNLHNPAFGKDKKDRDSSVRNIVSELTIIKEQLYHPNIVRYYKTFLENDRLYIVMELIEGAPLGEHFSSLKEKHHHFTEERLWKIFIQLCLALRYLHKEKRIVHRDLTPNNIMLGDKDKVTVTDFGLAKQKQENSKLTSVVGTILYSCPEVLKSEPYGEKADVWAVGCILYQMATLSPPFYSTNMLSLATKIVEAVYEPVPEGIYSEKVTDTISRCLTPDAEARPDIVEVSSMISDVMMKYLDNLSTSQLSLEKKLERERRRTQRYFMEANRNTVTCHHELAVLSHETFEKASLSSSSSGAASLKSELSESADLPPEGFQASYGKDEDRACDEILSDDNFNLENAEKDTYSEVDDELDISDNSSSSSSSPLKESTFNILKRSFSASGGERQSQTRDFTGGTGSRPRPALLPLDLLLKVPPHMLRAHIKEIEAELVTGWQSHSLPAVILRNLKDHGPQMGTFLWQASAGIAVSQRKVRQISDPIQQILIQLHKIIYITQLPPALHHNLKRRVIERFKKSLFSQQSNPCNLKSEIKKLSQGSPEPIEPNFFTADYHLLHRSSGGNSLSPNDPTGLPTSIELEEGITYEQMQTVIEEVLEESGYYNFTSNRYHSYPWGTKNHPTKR
5-hydroxytryptamine receptor 6 (Homo sapiens), sequence (P50406 whole entry): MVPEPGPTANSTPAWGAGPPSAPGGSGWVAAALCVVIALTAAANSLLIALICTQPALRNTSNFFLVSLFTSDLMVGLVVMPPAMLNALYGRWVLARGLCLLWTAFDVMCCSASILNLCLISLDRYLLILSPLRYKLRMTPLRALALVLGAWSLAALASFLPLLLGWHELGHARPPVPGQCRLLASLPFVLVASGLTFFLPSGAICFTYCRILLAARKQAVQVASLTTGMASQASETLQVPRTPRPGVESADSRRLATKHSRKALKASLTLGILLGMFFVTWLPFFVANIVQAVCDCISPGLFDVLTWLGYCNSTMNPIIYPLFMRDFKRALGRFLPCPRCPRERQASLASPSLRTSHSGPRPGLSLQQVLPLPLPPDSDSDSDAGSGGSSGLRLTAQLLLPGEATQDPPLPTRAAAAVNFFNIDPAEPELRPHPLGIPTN
Protein kinase C theta type (Homo sapiens), sequence (Q04759 whole entry, looked up): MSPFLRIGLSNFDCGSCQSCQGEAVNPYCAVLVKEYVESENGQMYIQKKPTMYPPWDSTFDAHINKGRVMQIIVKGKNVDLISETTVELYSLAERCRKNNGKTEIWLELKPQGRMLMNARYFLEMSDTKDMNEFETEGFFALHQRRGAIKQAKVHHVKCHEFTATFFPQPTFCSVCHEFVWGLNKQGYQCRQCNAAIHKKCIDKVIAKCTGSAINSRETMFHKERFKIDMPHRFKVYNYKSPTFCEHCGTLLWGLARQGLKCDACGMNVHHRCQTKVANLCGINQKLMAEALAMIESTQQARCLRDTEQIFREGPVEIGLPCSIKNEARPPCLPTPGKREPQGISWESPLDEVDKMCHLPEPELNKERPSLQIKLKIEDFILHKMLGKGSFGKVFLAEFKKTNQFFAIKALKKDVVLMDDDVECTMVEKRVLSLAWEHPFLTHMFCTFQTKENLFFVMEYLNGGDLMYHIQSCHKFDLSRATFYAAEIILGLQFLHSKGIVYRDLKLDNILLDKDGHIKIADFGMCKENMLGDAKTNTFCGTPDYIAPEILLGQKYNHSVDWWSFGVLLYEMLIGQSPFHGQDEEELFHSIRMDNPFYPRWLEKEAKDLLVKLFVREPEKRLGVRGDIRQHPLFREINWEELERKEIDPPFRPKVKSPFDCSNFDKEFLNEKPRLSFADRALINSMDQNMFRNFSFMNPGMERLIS
Muscle, skeletal receptor tyrosine-protein kinase (Homo sapiens), sequence (O15146 whole entry): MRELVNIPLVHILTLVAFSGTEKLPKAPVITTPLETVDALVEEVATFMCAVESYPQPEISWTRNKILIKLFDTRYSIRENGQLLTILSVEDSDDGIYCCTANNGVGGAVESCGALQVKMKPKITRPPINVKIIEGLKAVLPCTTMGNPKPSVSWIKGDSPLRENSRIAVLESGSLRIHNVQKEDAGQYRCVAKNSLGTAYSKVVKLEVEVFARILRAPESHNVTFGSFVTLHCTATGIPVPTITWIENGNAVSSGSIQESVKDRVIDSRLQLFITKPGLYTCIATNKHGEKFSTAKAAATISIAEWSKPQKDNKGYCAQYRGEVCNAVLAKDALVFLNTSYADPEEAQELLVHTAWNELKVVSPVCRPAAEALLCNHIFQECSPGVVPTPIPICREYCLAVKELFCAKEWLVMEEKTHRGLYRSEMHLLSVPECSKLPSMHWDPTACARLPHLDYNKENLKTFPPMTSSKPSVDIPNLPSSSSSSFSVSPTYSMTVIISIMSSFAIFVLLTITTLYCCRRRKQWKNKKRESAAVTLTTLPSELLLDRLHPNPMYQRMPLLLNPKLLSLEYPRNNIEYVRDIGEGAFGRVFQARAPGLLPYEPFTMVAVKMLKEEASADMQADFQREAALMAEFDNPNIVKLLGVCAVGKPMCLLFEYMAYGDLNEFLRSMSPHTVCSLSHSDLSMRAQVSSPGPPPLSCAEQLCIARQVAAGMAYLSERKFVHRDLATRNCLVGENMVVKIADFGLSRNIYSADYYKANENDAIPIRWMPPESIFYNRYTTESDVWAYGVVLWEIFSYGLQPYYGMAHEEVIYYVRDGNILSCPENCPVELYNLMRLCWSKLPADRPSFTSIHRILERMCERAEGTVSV

CNC(=O)c1ccc(Nc2ncc(C(F)(F)F)c(NCc3nccnc3N(C)S(C)(=O)=O)n2)cc1 [DEFACTINIB]
residual activity [1, 47]: 100%
residual activity [2, 47]: 93%
residual activity [3, 47]: 51%
residual activity [4, 47]: 87%
residual activity [5, 47]: 99%
residual activity [6, 47]: 92%
residual activity [7, 47]: 50%
residual activity [8, 47]: 94%
residual activity [9, 47]: 69%
residual activity [10, 47]: 71%
residual activity [11, 47]: 71%
residual activity [12, 47]: 91%
residual activity [13, 47]: 100%
residual activity [14, 47]: 83%
residual activity [15, 47]: 84%
residual activity [16, 47]: 89%
residual activity [17, 47]: 100%
residual activity [18, 47]: 95%
residual activity [19, 47]: 94%
residual activity [20, 47]: 27%
residual activity [21, 47]: 100%
inhibition [22]: 5.41%
residual activity [23, 47]: 100%
residual activity [24, 47]: 100%
inhibition [25]: -7.46%
inhibition [26]: 2.45%
residual activity [27, 47]: 87%
residual activity [28, 47]: 78%
residual activity [29, 47]: 95%
residual activity [30, 47]: 83%
residual activity [31, 47]: 100%
residual activity [32, 47]: 63%
residual activity [33, 47]: 75%
inhibition [34]: -8.99%
residual activity [35, 47]: 100%
inhibition [36]: 16.9%
residual activity [37, 47]: 100%
residual activity [38, 47]: 98%
residual activity [39, 47]: 100%
residual activity [40, 47]: 69%
residual activity [41, 47]: 82%
residual activity [42, 47]: 70%
residual activity [43, 47]: 100%
residual activity [44, 47]: 97%
residual activity [45, 47]: 100%
residual activity [46, 47]: 77%

CN(c1ccnc(CNc2nc(Nc3ccc4c(c3)CC(=O)N4)ncc2C(F)(F)F)n1)S(C)(=O)=O [PF-00911705]
residual activity [1, 48]: 100%
residual activity [2, 48]: 79%
residual activity [3, 48]: 21%
residual activity [4, 48]: 78%
residual activity [5, 48]: 90%
residual activity [6, 48]: 78%
residual activity [7, 48]: 97%
residual activity [8, 48]: 100%
residual activity [9, 48]: 50%
residual activity [10, 48]: 90%
residual activity [11, 48]: 44%
residual activity [12, 48]: 100%
residual activity [13, 48]: 59%
residual activity [14, 48]: 69%
residual activity [15, 48]: 80%
residual activity [16, 48]: 55%
residual activity [17, 48]: 100%
residual activity [18, 48]: 13%
residual activity [19, 48]: 81%
residual activity [20, 48]: 45%
residual activity [21, 48]: 69%
inhibition [22]: -6.47%
residual activity [23, 48]: 90%
residual activity [24, 48]: 100%
inhibition [25]: -0.97%
inhibition [26]: 33.5%
residual activity [27, 48]: 44%
residual activity [28, 48]: 40%
residual activity [29, 48]: 91%
residual activity [30, 48]: 78%
residual activity [31, 48]: 92%
residual activity [32, 48]: 53%
residual activity [33, 48]: 21%
inhibition [34]: 11.1%
residual activity [35, 48]: 43%
inhibition [36]: 8.11%
residual activity [37, 48]: 100%
residual activity [38, 48]: 100%
residual activity [39, 48]: 93%
residual activity [40, 48]: 66%
residual activity [41, 48]: 61%
residual activity [42, 48]: 11%
residual activity [43, 48]: 86%
residual activity [44, 48]: 85%
residual activity [45, 48]: 90%
residual activity [46, 48]: 100%
